From US11149040B2, “Fused triazole agonists of the APJ receptor” (AMGEN INC., priority 2017, dated 2021)

Each compound was assayed against human APJ receptor (Homo sapiens (Human), UniProt P35414) (assay: [35S]GTPγS binding assay on membranes from CHO cells stably expressing human APJ receptor). Conditions: read-out: Activity hAPJ SPA EC50 IP.
human APJ receptor, sequence (P35414 whole entry): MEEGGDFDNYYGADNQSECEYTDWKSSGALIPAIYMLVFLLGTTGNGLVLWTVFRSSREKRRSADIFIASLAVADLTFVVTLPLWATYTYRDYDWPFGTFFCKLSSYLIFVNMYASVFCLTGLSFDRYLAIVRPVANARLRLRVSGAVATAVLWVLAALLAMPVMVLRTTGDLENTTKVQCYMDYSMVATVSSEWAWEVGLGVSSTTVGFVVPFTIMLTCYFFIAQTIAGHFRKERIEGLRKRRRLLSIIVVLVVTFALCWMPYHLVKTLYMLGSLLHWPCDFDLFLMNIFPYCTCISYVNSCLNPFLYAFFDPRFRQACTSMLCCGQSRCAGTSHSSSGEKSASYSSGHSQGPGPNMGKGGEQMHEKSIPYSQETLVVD
Assay type: biochemical
Protocol: [^35S]GTPγS Binding The human APJ receptor was cloned by polymerase chain reaction and the gene encoding the receptor was subcloned in pFLAG-CMV™-3 expression vector (Sigma, Saint Louis, Mo. USA) in-house at Amgen. A GTPγS binding assay was performed on membranes prepared from CHO cells stably expressing human APJ receptor. The optimum experimental conditions for the concentrations of GDP, MgCl2, and NaCl in the assay buffer were initially determined. […] Incubation was at RT for 90 min and the microplate was read using a ViewLux™ ultra HTS Microplate Imager (PerkinElmer, Inc.). All the results presented are means of several independent experiments and analyzed by non-linear regression methods using the commercially available program Prism (GraphPad, San Diego, Calif.) providing the EC50 values detailed in Table 13.
For `COC[C@@H]1COc2ccc(OC)nc2-c2nnc(NS(=O)(=O)[C@@H](C)[C@H](C)c3ncc(C)cn3)n21` (mixture of isomers) [Example 10.0, (2S,3R)-N-((5R)-10-methoxy-5-(methoxymethyl)-5,6-dihydropyrido[2,3-f][1,2,4]triazolo[4,3-d][1,4]oxazepin-3-yl)-3-(5-methyl-2-pyrimidinyl)-2-butanesulfonamide and (2S,3R)-N-((5S)-10-methoxy-5-(methoxymethyl)-5,6-dihydropyrido[2,3-f][1,2,4]triazolo[4,3-d][1,4]oxazepin-3-yl)-3-(5-methyl-2-pyrimidinyl)-2-butanesulfonamide], the EC50 was 0.79 µM. Work on `COC[C@@H]1COc2ccc(OC)nc2-c2nnc(NS(=O)(=O)[C@@H](C)[C@@H](OC(C)C)c3ncc(C)cn3)n21` (mixture of isomers) [Example 11.0, (1S,2S)-N-((5R)-10-methoxy-5-(methoxymethyl)-5,6-dihydropyrido[2,3-f][1,2,4]triazolo[4,3-d][1,4]oxazepin-3-yl)-1-(5-methyl-2-pyrimidinyl)-1-(2-propanyloxy)-2-propanesulfonamide and (1S,2S)-N-((5S)-10-methoxy-5-(methoxymethyl)-5,6-dihydropyrido[2,3-f][1,2,4]triazolo[4,3-d][1,4]oxazepin-3-yl)-1-(5-methyl-2-pyrimidinyl)-1-(2-propanyloxy)-2-propanesulfonamide] yielded an EC50 of 0.041 µM. `COC[C@@H]1COc2cc(F)c(F)cc2-c2nnc(NS(=O)(=O)[C@@H](C)[C@@H](OC(C)C)c3ncc(C)cn3)n21` (mixture of isomers) [Example 16.0, (1S,2S)-N-((5R)-9,10-difluoro-5-(methoxymethyl)-5,6-dihydro[1,2,4]triazolo[4,3-d][1,4]benzoxazepin-3-yl)-1-(5-methyl-2-pyrimidinyl)-1-(2-propanyloxy)-2-propanesulfonamide and (1S,2S)-N-((5S)-9,10-difluoro-5-(methoxymethyl)-5,6-dihydro[1,2,4]triazolo[4,3-d][1,4]benzoxazepin-3-yl)-1-(5-methyl-2-pyrimidinyl)-1-(2-propanyloxy)-2-propanesulfonamide] was tested, and the EC50 was 1.7 µM. `COC[C@@H]1COc2ccc(F)cc2-c2nnc(NS(=O)(=O)[C@@H](C)[C@@H](OC(C)C)c3ncc(C)cn3)n21` (mixture of isomers) [Example 23.0, (1S,2S)-N-((5R)-10-fluoro-5-(methoxymethyl)-5,6-dihydro[1,2,4]triazolo[4,3-d][1,4]benzoxazepin-3-yl)-1-(5-methyl-2-pyrimidinyl)-1-(2-propanyloxy)-2-propanesulfonamide and (1S,2S)-N-((5S)-10-fluoro-5-(methoxymethyl)-5,6-dihydro[1,2,4]triazolo[4,3-d][1,4]benzoxazepin-3-yl)-1-(5-methyl-2-pyrimidinyl)-1-(2-propanyloxy)-2-propanesulfonamide] was tested, and the EC50 was 0.037 µM. With `Cc1cnc([C@H](OC(C)C)[C@H](C)S(=O)(=O)Nc2nnc3n2[C@H](CO)COc2ncccc2-3)nc1` (mixture of isomers) [Example 30.0, (1S,2S)-N-((5R)-5-(hydroxymethyl)-5,6-dihydropyrido[3,2-f][1,2,4]triazolo[4,3-d][1,4]oxazepin-3-yl)-1-(5-methyl-2-pyrimidinyl)-1-(2-propanyloxy)-2-propanesulfonamide and (1S,2S)-N-((5S)-5-(hydroxymethyl)-5,6-dihydropyrido[3,2-f][1,2,4]triazolo[4,3-d][1,4]oxazepin-3-yl)-1-(5-methyl-2-pyrimidinyl)-1-(2-propanyloxy)-2-propanesulfonamide] the EC50 was 0.46 µM. `CC(C)O[C@@H](c1ncc(Cl)cn1)[C@H](C)S(=O)(=O)Nc1nnc2n1[C@H](CO)COc1ncccc1-2` (mixture of isomers) [Example 31.0, (1S,2S)-1-(5-chloro-2-pyrimidinyl)-N-((5R)-5-(hydroxymethyl)-5,6-dihydropyrido[3,2-f][1,2,4]triazolo[4,3-d][1,4]oxazepin-3-yl)-1-(2-propanyloxy)-2-propanesulfonamide and (1S,2S)-1-(5-chloro-2-pyrimidinyl)-N-((5S)-5-(hydroxymethyl)-5,6-dihydropyrido[3,2-f][1,2,4]triazolo[4,3-d][1,4]oxazepin-3-yl)-1-(2-propanyloxy)-2-propanesulfonamide] showed an EC50 of 0.72 µM. `COC[C@@H]1COc2ncccc2-c2nnc(NS(=O)(=O)[C@@H](C)[C@@H](OC(C)C)c3ncc(C)cn3)n21` (mixture of isomers) [Example 32.0, (1S,2S)-N-((5R)-5-(methoxymethyl)-5,6-dihydropyrido[3,2-f][1,2,4]triazolo[4,3-d][1,4]oxazepin-3-yl)-1-(5-methyl-2-pyrimidinyl)-1-(2-propanyloxy)-2-propanesulfonamide and (1S,2S)-N-((5S)-5-(methoxymethyl)-5,6-dihydropyrido[3,2-f][1,2,4]triazolo[4,3-d][1,4]oxazepin-3-yl)-1-(5-methyl-2-pyrimidinyl)-1-(2-propanyloxy)-2-propanesulfonamide] gave an EC50 of 0.14 µM. Work on `COC[C@@H]1COc2c(OC)cccc2-c2nnc(NS(=O)(=O)[C@@H](C)[C@@H](OC(C)C)c3ncc(C)cn3)n21` (mixture of isomers) [Example 33.0, (1S,2S)-N-((5R)-8-methoxy-5-(methoxymethyl)-5,6-dihydro[1,2,4]triazolo[4,3-d][1,4]benzoxazepin-3-yl)-1-(5-methyl-2-pyrimidinyl)-1-(2-propanyloxy)-2-propanesulfonamide and (1S,2S)-N-((5S)-8-methoxy-5-(methoxymethyl)-5,6-dihydro[1,2,4]triazolo [4,3-d][1,4]benzoxazepin-3-yl)-1-(5-methyl-2-pyrimidinyl)-1-(2-propanyloxy)-2-propanesulfonamide] yielded an EC50 of 0.015 µM. `CO[C@H](c1ncc(C)cn1)[C@H](C)S(=O)(=O)Nc1nnc2n1[C@H](CO)COc1ncccc1-2` (mixture of isomers) [Example 36.0, (1R,2S)-N-((5R)-5-(hydroxymethyl)-5,6-dihydropyrido[3,2-f][1,2,4]triazolo[4,3-d][1,4]oxazepin-3-yl)-1-methoxy-1-(5-methyl-2-pyrimidinyl)-2-propanesulfonamide and (1R,2S)-N-((5S)-5-(hydroxymethyl)-5,6-dihydropyrido[3,2-f][1,2,4]triazolo[4,3-d][1,4]oxazepin-3-yl)-1-methoxy-1-(5-methyl-2-pyrimidinyl)-2-propanesulfonamide] gave an EC50 of 1.8 µM. With `COC[C@@H]1COc2ncccc2-c2nnc(NS(=O)(=O)[C@@H](C)[C@@H](OC(C)C)c3ncc(Cl)cn3)n21` (mixture of isomers) [Example 37.0, (1S,2S)-1-(5-chloro-2-pyrimidinyl)-N-((5R)-5-(methoxymethyl)-5,6-dihydropyrido[3,2-f][1,2,4]triazolo[4,3-d][1,4]oxazepin-3-yl)-1-(2-propanyloxy)-2-propanesulfonamide and (1S,2S)-1-(5-chloro-2-pyrimidinyl)-N-((5S)-5-(methoxymethyl)-5,6-dihydropyrido[3,2-f][1,2,4]triazolo[4,3-d][1,4]oxazepin-3-yl)-1-(2-propanyloxy)-2-propanesulfonamide] the EC50 was 0.03 µM. `COC[C@@H]1COc2ccc(F)cc2-c2nnc(NS(=O)(=O)CCc3ncc(C)cn3)n21` (mixture of isomers) [Example 42.0, N-((5R)-10-fluoro-5-(methoxymethyl)-5,6-dihydro[1,2,4]triazolo[4,3-d][1,4]benzoxazepin-3-yl)-2-(5-methyl-2-pyrimidinyl)ethanesulfonamide and N-((5S)-10-fluoro-5-(methoxymethyl)-5,6-dihydro[1,2,4]triazolo[4,3-d][1,4]benzoxazepin-3-yl)-2-(5-methyl-2-pyrimidinyl)ethanesulfonamide] gave an EC50 of 4.1 µM. Compound `CO[C@H](c1ncc(C)cn1)[C@H](C)S(=O)(=O)Nc1nnc2n1[C@H](COC(C)C)COc1ncccc1-2` (mixture of isomers) [Example 56.0, (1R,2S)-N-((R)-5-(isopropoxymethyl)-5,6-dihydropyrido[3,2-f][1,2,4]triazolo[4,3-d][1,4]oxazepin-3-yl)-1-methoxy-1-(5-methylpyrimidin-2-yl)propane-2-sulfonamide and (1R,2S)-N-((S)-5-(isopropoxymethyl)-5,6-dihydropyrido[3,2-f][1,2,4]triazolo[4,3-d][1,4]oxazepin-3-yl)-1-methoxy-1-(5-methylpyrimidin-2-yl)propane-2-sulfonamide] has an EC50 of 2.2 µM. `Cc1cnc([C@@H](OC(C)C)[C@H](C)S(=O)(=O)Nc2nnc3n2[C@H](CO)COc2ncccc2-3)nc1` (mixture of isomers) [Example 57.0, (1R,2S)-N-((5R)-5-(hydroxymethyl)-5,6-dihydropyrido[3,2-f][1,2,4]triazolo[4,3-d][1,4]oxazepin-3-yl)-1-(5-methyl-2-pyrimidinyl)-1-(2-propanyloxy)-2-propanesulfonamide and (1R,2S)-N-((5S)-5-(hydroxymethyl)-5,6-dihydropyrido[3,2-f][1,2,4]triazolo[4,3-d][1,4]oxazepin-3-yl)-1-(5-methyl-2-pyrimidinyl)-1-(2-propanyloxy)-2-propanesulfonamide] was tested, and the EC50 was greater than 12.5 µM. `Cc1cnc([C@H](OC(C)C)[C@H](C)S(=O)(=O)Nc2nnc3n2[C@H](CO)COc2cccnc2-3)nc1` (mixture of isomers) [Example 58.0, (1S,2S)-N-((R)-5-(hydroxymethyl)-5,6-dihydropyrido[2,3-f][1,2,4]triazolo[4,3-d][1,4]oxazepin-3-yl)-1-isopropoxy-1-(5-methylpyrimidin-2-yl)propane-2-sulfonamide and (1S,2S)-N-((S)-5-(hydroxymethyl)-5,6-dihydropyrido[2,3-f][1,2,4]triazolo[4,3-d][1,4]oxazepin-3-yl)-1-isopropoxy-1-(5-methylpyrimidin-2-yl)propane-2-sulfonamide] was tested, and the EC50 was 2.1 µM.
